Where two headings read alike, the source gives them in different places.
Assays:
[1] = test system: Plasmodium berghei (Pb-Luc) exoerythrocytic-stage parasites; conditions: for normalised signal at concentration 10 (first series): concentration 10, first series of dose columns; for normalised signal at concentration 10 (second series): concentration 10, second series of dose columns; for IC50: read-out: PbLuc_IC50, Broad compounds; for normalized signal at concentration 10 / normalized signal at concentration 0.000508053 / normalized signal at concentration 0.00152416 / normalized signal at concentration 0.00457247 / normalized signal at concentration 0.0137174 / normalized signal at concentration 0.0411523 / normalized signal at concentration 0.123457 / normalized signal at concentration 0.37037 / normalized signal at concentration 1.11111 / normalized signal at concentration 3.33333: fraction of control
HepG2-A16-CD81EGFP cells = conditions: for IC50: read-out: Tox_IC50, HepG2 cytotoxicity
[2] = sheet "2nd round", dose response top concentration 10
[3] = sheet 2nd round, maximal inhibition in dose response

## CC(C)[C@@H]1COCc2cnnn2CCC[C@H](C)C(=O)N1 [BRD-K01882341-001-02-9]
[1]
  normalised signal at concentration 0.000508053 (first series): 0.8014
  normalised signal at concentration 0.000508053 (second series): 0.9562
  normalised signal at concentration 0.00152416 (first series): 0.9047
  normalised signal at concentration 0.00152416 (second series): 0.8755
  normalised signal at concentration 0.00457247 (first series): 0.9797
  normalised signal at concentration 0.00457247 (second series): 1.034
  normalised signal at concentration 0.0137174 (first series): 0.9629
  normalised signal at concentration 0.0137174 (second series): 0.9854
  normalised signal at concentration 0.0411523 (first series): 0.8726
  normalised signal at concentration 0.0411523 (second series): 0.8168
  normalised signal at concentration 0.123457 (first series): 0.9418
  normalised signal at concentration 0.123457 (second series): 1.121
  normalised signal at concentration 0.37037 (first series): 0.9345
  normalised signal at concentration 0.37037 (second series): 0.7926
  normalised signal at concentration 1.11111 (first series): 0.8828
  normalised signal at concentration 1.11111 (second series): 0.9806
  normalised signal at concentration 3.33333 (first series): 0.9641
  normalised signal at concentration 3.33333 (second series): 0.9379
  normalised signal at concentration 10 (first series): 1.091
  normalised signal at concentration 10 (second series): 0.8693
[1]; [2]
  IC50: > 10 µM
[1]; sheet "2nd round"
  PbLuc_max_inhibition (%): 21%
HepG2-A16-CD81EGFP cells; sheet "2nd round"
  IC50: > 10 µM
  Tox_max_inhibition (%): 4.53%

## C[C@@H]1CCCCO[C@@H](CN(C)S(=O)(=O)c2ccc(F)cc2)[C@@H](C)CN([C@H](C)CO)C(=O)c2cc(N(C)C)ccc2O1 [BRD-K46014293-001-01-6]
[1]; first series of dose-response columns
  normalized signal at concentration 10: 1.08
[1]; first series
  normalized signal at concentration 0.000508053: 0.75
  normalized signal at concentration 0.00152416: 0.85
  normalized signal at concentration 0.00457247: 0.95
  normalized signal at concentration 0.0137174: 0.77
  normalized signal at concentration 0.0411523: 0.97
  normalized signal at concentration 0.123457: 1.05
  normalized signal at concentration 0.37037: 1.10
  normalized signal at concentration 1.11111: 1.01
  normalized signal at concentration 3.33333: 0.87
[1]; sheet 2nd round, dose response
  IC50: > 10 µM
[1]; second series of dose-response columns
  normalized signal at concentration 10: 0.93
[1]; second series
  normalized signal at concentration 0.000508053: 1.07
  normalized signal at concentration 0.00152416: 0.98
  normalized signal at concentration 0.00457247: 0.95
  normalized signal at concentration 0.0137174: 0.98
  normalized signal at concentration 0.0411523: 0.94
  normalized signal at concentration 0.123457: 1.10
  normalized signal at concentration 0.37037: 1.03
  normalized signal at concentration 1.11111: 0.83
  normalized signal at concentration 3.33333: 0.91
[1]; [3]
  PbLuc_max_inhibition (%): 25%
HepG2-A16-CD81EGFP cells; sheet 2nd round
  IC50: > 10 µM
HepG2-A16-CD81EGFP cells; [3]
  Tox_max_inhibition (%): 15%

## C[C@H](CO)N1C[C@H](C)[C@@H](CN(C)S(=O)(=O)c2ccc(F)cc2)OCCCC[C@H](C)Oc2ccc(N(C)C)cc2C1=O [BRD-K31169989-001-01-4]
[1]
  normalised signal at concentration 0.000508053 (first series): 0.9593
  normalised signal at concentration 0.000508053 (second series): 1.075
  normalised signal at concentration 0.00152416 (first series): 0.7705
  normalised signal at concentration 0.00152416 (second series): 0.9043
  normalised signal at concentration 0.00457247 (first series): 0.8601
  normalised signal at concentration 0.00457247 (second series): 0.8661
  normalised signal at concentration 0.0137174 (first series): 0.7407
  normalised signal at concentration 0.0137174 (second series): 1.136
  normalised signal at concentration 0.0411523 (first series): 1.052
  normalised signal at concentration 0.0411523 (second series): 0.8649
  normalised signal at concentration 0.123457 (first series): 0.7251
  normalised signal at concentration 0.123457 (second series): 0.9568
  normalised signal at concentration 0.37037 (first series): 0.9029
  normalised signal at concentration 0.37037 (second series): 0.9798
  normalised signal at concentration 1.11111 (first series): 0.7471
  normalised signal at concentration 1.11111 (second series): 0.8642
  normalised signal at concentration 3.33333 (first series): 0.9659
  normalised signal at concentration 3.33333 (second series): 0.7643
  normalised signal at concentration 10 (first series): 0.5392
  normalised signal at concentration 10 (second series): 0.607
[1]; [2]
  IC50: > 10 µM
[1]; sheet "2nd round"
  PbLuc_max_inhibition (%): 46%
HepG2-A16-CD81EGFP cells; sheet "2nd round"
  IC50: > 10 µM
  Tox_max_inhibition (%): 13%

From paper PMC4890880 (ACS infectious diseases, 2016)
